We go through 45 compounds from BindingDB's records for doi:10.7270/Q2FQ9V6B (Burnham Center For Chemical Genomics, 2012).

Where only a bound is given, the exact number is not on record here.

This experiment addresses T1, Tyrosine-protein phosphatase non-receptor type 22 (Homo sapiens, UniProt Q9Y2R2).
T1 sequence (Q9Y2R2 whole entry): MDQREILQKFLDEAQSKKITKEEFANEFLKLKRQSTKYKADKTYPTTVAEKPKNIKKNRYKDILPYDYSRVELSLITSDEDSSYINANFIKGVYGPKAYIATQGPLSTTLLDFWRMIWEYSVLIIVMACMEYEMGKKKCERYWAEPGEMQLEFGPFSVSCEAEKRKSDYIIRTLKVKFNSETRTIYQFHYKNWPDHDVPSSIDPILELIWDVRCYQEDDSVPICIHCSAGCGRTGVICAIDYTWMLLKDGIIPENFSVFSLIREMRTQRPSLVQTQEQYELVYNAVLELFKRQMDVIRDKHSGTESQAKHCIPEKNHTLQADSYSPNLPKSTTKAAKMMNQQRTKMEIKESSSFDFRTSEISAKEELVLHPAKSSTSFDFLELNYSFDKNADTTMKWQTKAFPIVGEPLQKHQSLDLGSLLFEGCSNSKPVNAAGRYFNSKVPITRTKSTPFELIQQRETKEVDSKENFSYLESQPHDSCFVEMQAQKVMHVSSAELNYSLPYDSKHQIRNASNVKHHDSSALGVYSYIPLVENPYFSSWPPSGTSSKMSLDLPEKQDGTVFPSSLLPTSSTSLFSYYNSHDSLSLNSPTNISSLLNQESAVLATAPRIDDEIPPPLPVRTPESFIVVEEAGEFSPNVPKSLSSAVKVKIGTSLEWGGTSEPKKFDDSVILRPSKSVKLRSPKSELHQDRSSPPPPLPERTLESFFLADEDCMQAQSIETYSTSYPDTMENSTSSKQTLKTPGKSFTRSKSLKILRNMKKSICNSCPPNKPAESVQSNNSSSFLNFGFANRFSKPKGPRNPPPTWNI
Briefly: lymphoid phosphatase LYP inhibitors – biochemical, selectivity assay for STEP inhibitor project, dose response (AID 624241).

Usually IC50 stands for the concentration at which inhibition is half-maximal. The low end stands for inhibition by little substance, the high end for a need for much substance.

Regarding `O=S(=O)(Nc1ccc(Cl)cc1)c1ccc(N2CCOCC2)c(NC(=S)NCCN2CCOCC2)c1`, the half-inhibitory concentration (IC50) was above 100 µM. The result for `O=C(CCc1ccccc1)NNC(=O)c1ccc(NC(=O)c2ccccc2)cc1` reads above 100 µM; that for `COc1cccc(Nc2nn3c(=O)c4ccccc4nc3s2)c1`, above 100 µM; that for `O=C(N/N=C/c1ccncc1)c1cccc(S(=O)(=O)Nc2ccc(Cl)cc2)c1`, above 100 µM. Next, `Cc1ccc(N=C(S)N(CCN(C)C)Cc2cccs2)c(C)c1`: above 100 µM; `NC(=O)C1(N2CCCCC2)CCN(C(=S)Nc2ccc(S(N)(=O)=O)cc2)CC1` [1'-({[4-(aminosulfonyl)phenyl]amino}carbonothioyl)-1,4'-bipiperidine-4'-carboxamide]: above 100 µM; `S=C(NCCc1ccccc1)Nc1c(Cl)cccc1Cl` [1-(2,6-dichlorophenyl)-3-(2-phenylethyl)thiourea]: above 100 µM. Compound `COc1ccc(NC(=S)NCCCN2CCCC2)cc1Cl` [1-(3-chloro-4-methoxyphenyl)-3-[3-(1-pyrrolidinyl)propyl]thiourea] had a half-maximal inhibitory concentration (IC50) above 100 µM. Next, `CCCN(CC(=O)Nc1ccccc1OC)C(=O)Cc1ccc2c(c1)CCC2` [2-(2,3-dihydro-1H-inden-5-yl)-N-[2-[(2-methoxyphenyl)amino]-2-oxidanylidene-ethyl]-N-propyl-ethanamide]: above 100 µM.

Consider `CCOc1cc(CN=Nc2nc(O)c(CC(=O)O)s2)ccc1OCc1ccc(Cl)cc1Cl` [2-[2-[(N''E)-N''-[4-(2,4-dichlorobenzyl)oxy-3-ethoxy-benzylidene]hydrazino]-4-keto-2-thiazolin-5-yl]acetic acid], for which the IC50 amounted to 7.26 µM. Next, `Cc1c(CC(=O)O)c(=O)oc2c(C)c(OCc3ccccc3Br)ccc12` [2-[7-[(2-bromophenyl)methoxy]-4,8-dimethyl-2-oxochromen-3-yl]acetic acid]: above 100 µM; `Cc1ccc(-c2nc(NC(=O)CSc3cc(C)c4ccccc4n3)ns2)cc1` [2-[(4-methyl-2-quinolyl)thio]-N-[5-(p-tolyl)-1,2,4-thiadiazol-3-yl]acetamide]: above 100 µM; `Cc1c(CCC(=O)O)c(=O)oc2c(C)c(OCc3ccccc3Cl)ccc12` [3-[7-[(2-chlorophenyl)methoxy]-4,8-dimethyl-2-oxochromen-3-yl]propanoic acid]: above 100 µM. `O=C1Nc2ccc3sc4ccccc4c3c2C1=O` [3H-6-Thia-3-aza-cyclopenta[c]fluorene-1,2-dione] showed an IC50 above 100 µM. The result for `O=C(N/N=C/c1cccc([N+](=O)[O-])c1)c1ccc(Br)cc1` [4-bromo-N-[(E)-(3-nitrophenyl)methylideneamino]benzamide] reads above 100 µM; that for `O=[N+]([O-])c1ccc(O)c(Nc2ncnc3ccccc23)c1` [4-nitro-2-(4-quinazolinylamino)phenol], above 100 µM; that for `O=C(N/N=C/c1ccc(Br)cc1)c1ccc(Br)o1` [5-bromanyl-N-[(E)-(4-bromophenyl)methylideneamino]furan-2-carboxamide], above 100 µM. The result for `OCCN1CCN(C(=S)c2ccc(Cl)c(Cl)c2)CC1` [(3,4-dichlorophenyl)-[4-(2-hydroxyethyl)-1-piperazinyl]methanethione] reads above 100 µM; that for `CCOc1ccc(C(=S)N2CCN(C)CC2)cc1` [(4-ethoxyphenyl)-(4-methyl-1-piperazinyl)methanethione], above 100 µM.

Turning to `Cc1ccc(C(=S)N2CCN(Cc3ccccc3)CC2)s1` [(5-methyl-2-thiophenyl)-[4-(phenylmethyl)-1-piperazinyl]methanethione], the IC50 was above 100 µM.

On to `CCc1ccc(OCC(=O)Nc2ccc(-c3nc4ccccc4o3)c(O)c2)cc1` [MLS000109444], for which the IC50 was above 100 µM. Next, `S=C1N=C2C(=C3SCCS3)CCCC2C(c2ccccc2)N1` (stereo not given) [MLS000516376]: above 100 µM.

With `O=C(N/N=C/c1ccc(OC(=O)c2cccs2)cc1)c1cccc(F)c1` [MLS000576933], the IC50 was above 100 µM. For the compound `OCCN1CCN(C(=S)c2ccc(Br)cc2)CC1` [MLS000577024], the IC50 was above 100 µM. Next, `O=C(N/N=C/c1ccc(Cl)c([N+](=O)[O-])c1)c1ccc2c(c1)OCCO2` [MLS000587937]: above 100 µM; `COC(=O)Nc1sc2c(c1C(N)=O)CCC(C)C2` (stereo not given) [MLS000683996]: above 100 µM. The result for `CC(C)(C)C(=O)Nc1ccc(C(=O)Nc2cccc(Oc3ccc(C(=O)O)c(C(=O)O)c3)c2)cc1` [MLS001181252] reads above 100 µM; that for `CCOc1ccc(/C=N/NC(=O)c2cc3c(OC)cccc3[nH]2)cc1` [MLS001216500], above 100 µM.

`CSc1ccc(CN=Nc2ccc(S(=O)(=O)Nc3ccccc3C(=O)O)cc2[N+](=O)[O-])cc1` [MLS002245633] yielded an IC50 of 2.82 µM. For `O=C(N/N=C/C1C=CC=CC1=O)c1cccc([N+](=O)[O-])c1` (stereo not given) [MLS002667988], the concentration for half-maximal inhibition (IC50) was above 100 µM. Next, `O=C(Nc1cccc2c(=O)[nH][nH]c(=O)c12)c1ccc([N+](=O)[O-])cc1` [MLS003171605]: above 100 µM; `S=C(c1cn(CCOc2ccccc2)c2ccccc12)N1CCCC1` [MLS-0109562.0001]: above 100 µM; `COc1cc(Cl)ccc1N=C(S)N(CCCN1CCOCC1)Cc1cn(C)c2ccccc12` [N'-(4-chloro-2-methoxyphenyl)-N-[(1-methyl-1H-indol-3-yl)methyl]-N-(3-morpholin-4-ylpropyl)thiourea]: above 100 µM. For `COc1cccc(-c2cc(C(=O)Nc3nc4ccccc4s3)c3ccccc3n2)c1` [N-(1,3-benzothiazol-2-yl)-2-(3-methoxyphenyl)-4-quinolinecarboxamide], the IC50 is above 100 µM. Next, `O=C(N/N=C/c1cccc(Br)c1)c1ccc(N2CCCC2=O)cc1` [N-[(E)-(3-bromophenyl)methylideneamino]-4-(2-oxidanylidenepyrrolidin-1-yl)benzamide]: above 100 µM; `O=C(COc1ccc(/C=N/NC(=O)c2ccccc2O)cc1)Nc1ccccc1` [N-[(E)-[4-(2-anilino-2-oxoethoxy)phenyl]methylideneamino]-2-hydroxybenzamide]: above 100 µM. Next, `COc1ccc(OC)c(-n2c(O)c3o[nH]c(-c4ccccc4Cl)c-3c2=O)c1` [SMR000046218]: above 100 µM; `CCN1CCN(C(=S)c2ccc(Cl)c(Cl)c2)CC1` [SMR000143195]: above 100 µM; `N=C1S/C(=C\c2ccc(O)cc2)C(=O)N1c1ccc(F)cc1` [SMR000298434]: above 100 µM. The result for `CCOC(=O)N1CCC(N(CCN(C)C)C(=S)Nc2ccc(Oc3ccccc3)cc2)CC1` [SMR000311544] reads above 100 µM; that for `COC(=O)c1ccccc1CSc1nsc(/C=C/N(C)C)c1C#N` [SMR000549393], above 100 µM.

In turn, `Cc1ccc(NC(=O)c2ccc3nc(N4CCOCC4)sc3c2)c(Cl)c1` [SMR000624920] yielded an IC50 above 100 µM. On to `Cc1sc2nc(CSC(C)C(=O)Nc3ccc(Cl)cn3)nc(O)c2c1C` (stereo not given) [SMR001268769], for which the IC50 was above 100 µM. The result for `O=C(NN=Cc1ccccc1O)NN=Cc1ccccc1O` [SMR001556943] reads above 100 µM; that for `COc1ccc(CN=Nc2nc(O)c(CC(=O)O)s2)cc1OCc1ccc(Cl)cc1Cl` [[2-({3-[(2,4-dichlorobenzyl)oxy]-4-methoxybenzylidene}hydrazono)-4-oxo-1,3-thiazolidin-5-yl]acetic acid], 33.8 µM.
